Laboratory results published in the NIST ThermoML archive (doi:10.1021/je0342419).

Key:
[1] = xn = mol fraction of the nth substance listed; details: 300 kPa, Fluid (supercritical or subcritical phases)
[2] = 300 kPa, Fluid (supercritical or subcritical phases)

[HH] [hydrogen] + O=C=O
viscosity [mPa·s], [1]
Details	x1 = 0.15	x1 = 0.3	x1 = 0.5	x1 = 0.7	x1 = 0.85	x1 = 1
500 K	0.0238	0.0241	0.0236	0.0215	0.0192	0.0129
800 K	0.0351	0.0346	0.0336	0.0303	0.0269	0.0179
1100 K	0.0438	0.0431	0.0422	0.0403	0.0346	0.0226

O=C=O [carbon dioxide]
[2]
Details	viscosity [mPa·s]
500 K	0.0236
800 K	0.0356
1100 K	0.0452

[HH] [hydrogen]
[2]
Details	viscosity [mPa·s]
500 K	0.0129
800 K	0.0179
1100 K	0.0226

O=C=O [carbon dioxide] + [HH]
[1], x2 = 0
Details	viscosity [mPa·s]
500 K	0.0236
800 K	0.0356
1100 K	0.0452
